One series concerns the target T1, EGFR-wt (Homo sapiens, UniProt P00533).
T1 construct: Eurofins
As to the kind of experiment: Inhibition of EGFR, LANCE TR-FRET assay. It is filed as biochemical. As to conditions: 1 and 10 µM (either concentration); data not shown. The procedure: Inhibition of EGFR assay: The inhibition of EGFR activity was determined using the LANCE®TR-FRET (time-resolved fluorescence energy transfer) test according to the protocol described by Weber et al. (1984). The reference compound (PD153035) was tested simultaneously with LASSBio-1920 (1 and 10 µM). The LASSBio-1920 concentrations were determined based on IC50 values and the compound’s aqueous solubility. The experiment was carried out in agreement with Eurofins®’s Standard Operating Procedure.
On the technique in general: Time-resolved FRET reads energy transfer from a long-lived donor to a nearby acceptor.

The next series in a line: PAMPA-BBB permeability. It is filed as in vitro ADME. As to conditions: for Papp: PAMPA. In general terms: The PAMPA barrier holds no transporters, so it reflects passive diffusion.
A short description of series [1]: Microsomal (metabolic) stability. As to conditions: Wistar rat liver microsomes, with or without NADPH-generating system, 100 µM, up to 120 min. It is filed as in vitro ADME. The procedure:
Livers were obtained from male Wistar rats (250 and 300 g) from the Federal University of Ceara (UFC, Fortaleza, Brazil). The livers were maintained in an ice bath and washed with 3 volumes of 0.05 M Tris-HCl and 0.25 M sucrose, pH 7.4. They were then sliced and homogenized in a Potter–Elvehjem glass-Teflon homogenizer. The homogenates were centrifuged for 30 min at 900× g at 4 °C, and the supernatant fraction was centrifuged at 10,000× g for 1 h at 4 °C. The pellet was discarded, and the supernatant fraction was centrifuged at 100,000× g for 1 h at 4 °C. The microsomal fraction in the resulting pellet was recovered. The pellet was washed and resuspended twice in 0.05 M Tris-HCl, condensed into a pellet again by centrifugation for 1 h at 100,000× g at 4 °C and, finally, resuspended in the Tris-HCl buffer. Metabolic assays were carried out with frozen microsomes in Tris–HCl buffer, stored at –80 °C. […]
The final concentration of DMSO in the incubation mixture was 0.5%. […] The supernatant was analyzed by HPLC (acetonitrile/water 7:3 with 0.1% trifluoroacetic acid) using an internal standard (4-acetylbiphenyl—final concentration of 20 µM). […]

The next series is described as follows: PAMPA-GIT permeability. It is filed as in vitro ADME. As to conditions: PAMPA-GIT, 5 h, room temperature; read-out: Pe (Experimental).
A further series concerns N-87, gastric carcinoma. As to the kind of experiment: MTT cytotoxicity assay, N-87. As to conditions: Homo sapiens, 72 h, read-out: IC50 (95% CI) N-87. (In general: Tetrazolium dyes change colour on reduction, which living cells bring about.)
The subject of series [2] is HCT-116 human colorectal cancer cells (colon carcinoma). As to the kind of experiment: MTT cytotoxicity assay, HCT-116. To be noted: for IC50: Homo sapiens.
Experimental: (§1) The cytotoxicity of the compounds was determined using the MTT assay [13]. Cells were seeded in 96-well plates as follows: 0.7 × 10^5 cells/well for adherent cancer cells, 0.3 × 10^5 cells/well for suspended cancer cells, and 0.2 × 10^5 cells/well for HPBMCs. […] The control group was treated with the vehicle. […] After incubation, the supernatant was decanted and replaced with fresh medium containing MTT (0.5 mg/mL).
(§2) Data were presented as mean ± standard error of the mean (SEM) from three independent experiments performed in triplicate, calculated using Prism 8.0 (GraphPad/Intuitive Software for Science, San Diego, CA, USA). The IC50 of the compounds was obtained using a non-linear regression of the cytotoxicity curves.

Where two headings read alike, the source gives them in different places.

T1 sequence (P00533 25-1210): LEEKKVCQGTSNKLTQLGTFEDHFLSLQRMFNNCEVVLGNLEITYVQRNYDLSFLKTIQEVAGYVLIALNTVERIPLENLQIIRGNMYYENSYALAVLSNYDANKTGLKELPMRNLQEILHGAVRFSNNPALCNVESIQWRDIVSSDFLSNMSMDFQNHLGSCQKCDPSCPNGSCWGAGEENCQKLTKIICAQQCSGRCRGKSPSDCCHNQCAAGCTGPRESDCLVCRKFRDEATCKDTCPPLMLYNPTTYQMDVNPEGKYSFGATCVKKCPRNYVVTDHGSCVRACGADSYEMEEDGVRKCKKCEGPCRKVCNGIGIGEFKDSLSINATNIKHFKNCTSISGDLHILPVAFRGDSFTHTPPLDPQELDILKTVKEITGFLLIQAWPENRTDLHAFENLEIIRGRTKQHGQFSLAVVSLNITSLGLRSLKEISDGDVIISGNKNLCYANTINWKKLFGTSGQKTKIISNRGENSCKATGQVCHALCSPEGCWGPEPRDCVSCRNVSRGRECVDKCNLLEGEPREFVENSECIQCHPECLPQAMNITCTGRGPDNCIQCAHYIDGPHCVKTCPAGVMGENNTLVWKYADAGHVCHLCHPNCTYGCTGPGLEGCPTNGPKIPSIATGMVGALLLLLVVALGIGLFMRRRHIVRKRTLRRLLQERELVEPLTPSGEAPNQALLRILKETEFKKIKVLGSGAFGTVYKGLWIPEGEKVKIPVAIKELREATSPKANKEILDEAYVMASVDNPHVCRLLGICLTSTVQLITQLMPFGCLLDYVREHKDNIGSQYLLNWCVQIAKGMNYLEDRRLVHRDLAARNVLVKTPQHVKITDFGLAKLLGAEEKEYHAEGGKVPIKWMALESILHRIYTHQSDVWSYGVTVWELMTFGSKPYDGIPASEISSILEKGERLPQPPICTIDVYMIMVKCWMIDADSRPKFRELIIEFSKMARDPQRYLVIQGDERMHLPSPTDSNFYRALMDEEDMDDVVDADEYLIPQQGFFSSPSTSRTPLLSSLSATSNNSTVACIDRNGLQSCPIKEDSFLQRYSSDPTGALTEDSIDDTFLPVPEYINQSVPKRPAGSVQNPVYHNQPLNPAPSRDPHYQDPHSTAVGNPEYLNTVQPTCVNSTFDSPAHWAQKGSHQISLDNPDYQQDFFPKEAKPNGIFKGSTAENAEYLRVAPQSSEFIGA
Experimental for N-87, gastric carcinoma: as §1, §2
Experimental for PAMPA-BBB permeability: (§3) For this, two 96-well plates were placed one above the other, and between them, an artificial hydrophobic polyvinylidene fluoride (PVDF) membrane, which was impregnated with a lipid solution. The top plate works as the donor compartment and the bottom one as the receiver compartment.
Parallel artificial membrane permeation assay for the blood–brain barrier (PAMPA-BBB): It was performed according to the previously reported [26] method established by Lu and coworkers [27].
Text for PAMPA-GIT permeability: as §3
Parallel artificial membrane permeation assay for gastrointestinal tract (GIT-PAMPA): 1% (w/v) phosphatidylcholine was mixed with dodecane as a lipid solution to impregnate the PVDF membrane between the donor and receiver plates to stimulate intestinal permeability. […] A total of 180 µL of the mixture of PBS and DMSO (v/v 95:5) was added to the recipient plate, and 180 µL of the test solution was added to the donor plate. Immediately and carefully, the donor plate was placed above the receiver plate and incubated for 5 h at room temperature. The solution captured on the receptor plate was removed and subsequently analyzed by a UV detector (SpectraMax 5®—Molecular Devices, Sao Jose, CA, USA). The experiments were performed in quadruplicate.

In the case of `COc1cc(C(=O)N/N=C/c2cc3ccccc3s2)cc(OC)c1OC` [LASSBio-1920, (E)-N′-(Benzo[b]thiophen-2-ylmethylene)-3,4,5-trimethoxybenzohydrazide], at EGFR-wt, the “enzymatic inhibition of EGFR-wt” value is on record as “less than 20%”. Also, the Papp is over 3.47 ×10⁻⁶ cm/s in “PAMPA-BBB permeability” (PAMPA-BBB classification: absorbed by the Central Nervous System, read-out: CNS Permeability) and 11.5 ×10⁻⁶ cm/s in the series “PAMPA-BBB permeability” (PAMPA-BBB, mean, read-out: Pe (Experimental Mean)). Besides, in “PAMPA-BBB permeability” (PAMPA-BBB, mean), the “Pe (Experimental Mean)” value is 11.48 10–6 cm/s. In addition, the “Pe1 (Experimental)” value in the series “PAMPA-BBB permeability” (PAMPA-BBB, replicate 1) was 12.43 10–6 cm/s. The “Pe2 (Experimental)” value in “PAMPA-BBB permeability” (PAMPA-BBB, replicate 2) was 10.53 10–6 cm/s. Also, the “metabolic stability in liver microsomal fraction” value in series [1] is listed as “significantly metabolized by the microsomal fraction only in the presence of an NADPH-generating system”. In “PAMPA-GIT permeability”, the Papp at 5 h, 0.5 mM worked out at 6.6 ×10⁻⁶ cm/s. Also, the IC50 (as a rule, the midpoint of a concentration-inhibition curve) in the series with N-87, gastric carcinoma was 440 nM; in series [2] (HCT-116, 24 h, read-out: IC50 (95% CI) HCT-116 24 h) it was over 100000 nM; in series [2] (HCT-116, 48 h, read-out: IC50 (95% CI) HCT-116 48 h), 2700 nM; in series [2] (HCT-116, 72 h, read-out: IC50 (95% CI) HCT-116), 60 nM; in series [2] (HCT-116, 72 h, read-out: IC50 (95% CI) HCT-116 72 h) it was 60 nM. Moreover, the “SI HPBMC/HCT-116” value in series [2] (IC50 for HPBMC/IC50 for the tumor cell line, 72 h) stood at 2.3.
